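Growth conditions: 96-well plates. Treatment: test compound, 48 hours, 5 concentrations. Analysis: linear interpolation between bracketing concentrations; unreached endpoints set to highest concentration. GI50 = concentration required for 50% inhibition of growth.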 Activity calls are given as the source filed them. Cut-off read from the data, not from the text of the source: active = GI50 up to about 1.1 µM and inactive = higher.
Columns and labels:
Assay in all cases: growth of human tumour cells (NCI), 48 h
[1] = test system: CCRF-CEM
[2] = test system: MCF7
[3] = test system: OVCAR-4
[4] = test system: SW-620
[5] = test system: SF-295
[6] = test system: T47D
[7] = test system: COLO 205
[8] = test system: HT-29
[9] = test system: OVCAR-3
[10] = test system: UACC-62
[11] = test system: SK-MEL-5
[12] = test system: A549
[13] = test system: NCI/ADR-RES
[14] = test system: K562
[15] = test system: MOLT-4
[16] = test system: LOX IMVI
[17] = test system: MDA-MB-435
[18] = test system: NCI-H460

SMILES | GI50 [1] | GI50 [2] | GI50 [3] | GI50 [4] | GI50 [5] | GI50 [6] | GI50 [7] | GI50 [8] | GI50 [9] | GI50 [10] | GI50 [11] | GI50 [12] | GI50 [13] | GI50 [14] | GI50 [15] | GI50 [16] | GI50 [17] | GI50 [18]
CC(=O)c1ccc2c(c1)CC1(C2)Cc2ccc3c(c2C1=O)CCC3 (centres undefined) | 24.3 µM (inactive) | 22.5 µM (inactive) | 19.2 µM (inactive) | 41 µM (inactive) | 31 µM (inactive) | 12.5 µM (inactive) | 18.3 µM (inactive) | 15.2 µM (inactive) | 31 µM (inactive) | 22.1 µM (inactive) | 13.3 µM (inactive) | 23.4 µM (inactive) | 20.1 µM (inactive) | 15 µM (inactive) | 14.9 µM (inactive) | 24.5 µM (inactive) | 17.9 µM (inactive) | 29.3 µM (inactive)
N#CC1=C(N)N(c2ccccc2)C(c2ccccc2)C1(C#N)C#N (centres undefined) | 12.8 µM (inactive) | 14.8 µM (inactive) | 19.6 µM (inactive) | 19.1 µM (inactive) | 18.4 µM (inactive) | 10.4 µM (inactive) | 17.2 µM (inactive) | 15.7 µM (inactive) | 17.8 µM (inactive) | 18.2 µM (inactive) | 13.5 µM (inactive) | 17.8 µM (inactive) | 20.3 µM (inactive) | 6.05 µM (inactive) | 12.3 µM (inactive) | 16.6 µM (inactive) | 18.8 µM (inactive) | 
Nc1ncnc2c1ncn2[C@@H]1C[C@H](NO)[C@@H](O)[C@H]1O | 22.3 µM (inactive) | 49.3 µM (inactive) | > 100 µM (inactive) | 26.9 µM (inactive) | > 100 µM (inactive) | > 100 µM (inactive) | > 100 µM (inactive) |  | > 100 µM (inactive) | > 100 µM (inactive) | > 100 µM (inactive) | > 100 µM (inactive) | 68.5 µM (inactive) | 28.1 µM (inactive) | 83.4 µM (inactive) | 13.1 µM (inactive) | > 100 µM (inactive) | > 100 µM (inactive)
CCCNCC(O)CNc1ccc(NCC(O)CNCCC)c2c1C(=O)c1ccccc1C2=O (centres undefined) | 0.998 µM (active) | 2.54 µM (inactive) | 3.07 µM (inactive) | 2.05 µM (inactive) |  | 4.02 µM (inactive) | 2.31 µM (inactive) | 2.17 µM (inactive) | 4.37 µM (inactive) | 1.9 µM (inactive) | 2.69 µM (inactive) | 1.81 µM (inactive) | > 75 µM (inactive) | 2.14 µM (inactive) | 1.26 µM (inactive) | 1.44 µM (inactive) | 2.81 µM (inactive) | 2.42 µM (inactive)
C=C(Cl)C(Cl)(CBr)CCCC(C)(C)Cl (centres undefined) | > 33.7 µM (inactive) | 7.1 µM (inactive) | 2.55 µM (inactive) | 20.4 µM (inactive) | 7.55 µM (inactive) | 1.8 µM (inactive) | 7.5 µM (inactive) | 1.97 µM (inactive) | 2.47 µM (inactive) | 17.4 µM (inactive) | 29.9 µM (inactive) | 14.6 µM (inactive) | 30.4 µM (inactive) | > 42 µM (inactive) | > 55.6 µM (inactive) | 11.9 µM (inactive) | 27.2 µM (inactive) | 5.71 µM (inactive)
CC(NC(=O)c1ccccc1)(C(=O)O)C(=O)O | > 100 µM (inactive) | > 100 µM (inactive) | > 100 µM (inactive) | > 100 µM (inactive) | > 100 µM (inactive) | > 100 µM (inactive) | > 100 µM (inactive) | > 100 µM (inactive) | > 100 µM (inactive) | > 100 µM (inactive) | > 100 µM (inactive) | > 100 µM (inactive) | > 100 µM (inactive) | > 100 µM (inactive) | > 100 µM (inactive) | > 100 µM (inactive) | > 100 µM (inactive) | > 100 µM (inactive)
Cc1cc(=O)oc2c(CNC(C(=O)O)C(C)O)c(O)ccc12 (centres undefined) | > 100 µM (inactive) | > 100 µM (inactive) | > 100 µM (inactive) | > 100 µM (inactive) | > 100 µM (inactive) | > 100 µM (inactive) | > 100 µM (inactive) | > 100 µM (inactive) | > 100 µM (inactive) | > 100 µM (inactive) | > 100 µM (inactive) | > 100 µM (inactive) | > 100 µM (inactive) | > 100 µM (inactive) | > 100 µM (inactive) | > 100 µM (inactive) | > 100 µM (inactive) | > 100 µM (inactive)
CC(C)=C=CC(C)(C)NS(=O)(=O)NC(C)(C)C=C=C(C)C |  | > 100 µM (inactive) | > 100 µM (inactive) | > 100 µM (inactive) | > 100 µM (inactive) | 15.7 µM (inactive) | > 100 µM (inactive) | 75.5 µM (inactive) | 71.3 µM (inactive) | > 100 µM (inactive) | > 100 µM (inactive) | 42.1 µM (inactive) | > 100 µM (inactive) | 19.8 µM (inactive) |  | > 100 µM (inactive) | > 100 µM (inactive) | 80.9 µM (inactive)
CN1CCN(c2ccc([N+](=O)[O-])c3no[n+]([O-])c23)CC1 | 0.0143 µM (active) | 0.0817 µM (active) | 0.689 µM (active) | 0.0631 µM (active) | 0.0424 µM (active) | 0.0661 µM (active) | 0.656 µM (active) | 0.18 µM (active) | 0.396 µM (active) | 0.769 µM (active) | 0.743 µM (active) | 0.207 µM (active) | 0.161 µM (active) | 0.0881 µM (active) |  | 0.0485 µM (active) | 1.05 µM (active) | 0.0334 µM (active)
COc1ccc2c(Cl)cc(NC(=S)Nc3ccccc3)nc2c1 | < 0.01 µM (active) | 25.8 µM (inactive) | 32.4 µM (inactive) | 26.4 µM (inactive) | 31.6 µM (inactive) | 14.5 µM (inactive) | 31.2 µM (inactive) | 22.4 µM (inactive) | 31.8 µM (inactive) | 17.2 µM (inactive) | 33.6 µM (inactive) | 29.5 µM (inactive) | 22.3 µM (inactive) | 23.4 µM (inactive) | 25.2 µM (inactive) | 21.1 µM (inactive) | 17.7 µM (inactive) | 32.3 µM (inactive)
O=C(/C=C/c1ccc(O)c(O)c1)NC(COC(=O)/C=C/c1ccc(O)c(O)c1)C(=O)O (centres undefined) | 37.8 µM (inactive) | > 100 µM (inactive) | > 100 µM (inactive) | > 100 µM (inactive) | > 100 µM (inactive) | > 100 µM (inactive) | > 100 µM (inactive) | > 100 µM (inactive) | > 100 µM (inactive) | > 100 µM (inactive) | > 100 µM (inactive) | > 100 µM (inactive) | > 100 µM (inactive) | > 100 µM (inactive) | > 100 µM (inactive) | > 100 µM (inactive) | > 100 µM (inactive) | > 100 µM (inactive)
CSc1ncnc2c1cnn2Cc1cn(COCCO)nn1 | 43.5 µM (inactive) | 43.3 µM (inactive) | 45.5 µM (inactive) | 44.3 µM (inactive) |  | > 100 µM (inactive) | 33.9 µM (inactive) | 22.3 µM (inactive) | 18.3 µM (inactive) | 84.3 µM (inactive) | 46.8 µM (inactive) | 51.8 µM (inactive) | > 100 µM (inactive) | 38.4 µM (inactive) |  | 80.7 µM (inactive) | 11.1 µM (inactive) | 32 µM (inactive)
CC(NC(=N)N)C(=O)O (centres undefined) | > 100 µM (inactive) | > 100 µM (inactive) | > 100 µM (inactive) | > 100 µM (inactive) | > 100 µM (inactive) | > 100 µM (inactive) | > 100 µM (inactive) | > 100 µM (inactive) | > 100 µM (inactive) | > 100 µM (inactive) | > 100 µM (inactive) | > 100 µM (inactive) | > 100 µM (inactive) | > 100 µM (inactive) | > 100 µM (inactive) | > 100 µM (inactive) | > 100 µM (inactive) | 
CCOC(=O)c1sc(N/N=C2\NC(=O)/C(=C/c3ccc([N+](=O)[O-])cc3)S2)nc1C | 15.1 µM (inactive) | 22.3 µM (inactive) | 26.1 µM (inactive) | 31.8 µM (inactive) | 20.4 µM (inactive) | 15.1 µM (inactive) | 25.1 µM (inactive) | 25.2 µM (inactive) | 14.5 µM (inactive) | 22.2 µM (inactive) | 16.8 µM (inactive) | 28.3 µM (inactive) | 23.9 µM (inactive) |  | 10.3 µM (inactive) | 19.8 µM (inactive) | 23.8 µM (inactive) | 21.5 µM (inactive)
O=C1/C(=N/O)Cc2c(Br)ccc(Br)c21 | 27.8 µM (inactive) | 36.1 µM (inactive) | 33.3 µM (inactive) | 63.5 µM (inactive) | 34.6 µM (inactive) | 51.3 µM (inactive) |  | > 100 µM (inactive) | 22.3 µM (inactive) |  | 32.4 µM (inactive) |  | 35.7 µM (inactive) | 26 µM (inactive) | 25.4 µM (inactive) | 31.9 µM (inactive) | 39.6 µM (inactive) | 37.6 µM (inactive)
O=c1c2ccccc2nc(-c2ccccc2)n1O | 19.6 µM (inactive) | 95.9 µM (inactive) | 55.5 µM (inactive) | > 100 µM (inactive) | 35.3 µM (inactive) | 45.6 µM (inactive) | > 100 µM (inactive) | > 100 µM (inactive) | 51.6 µM (inactive) | > 100 µM (inactive) | 70.8 µM (inactive) | 71.8 µM (inactive) | 32.4 µM (inactive) | 30.9 µM (inactive) |  | 76.6 µM (inactive) | > 100 µM (inactive) | 64.1 µM (inactive)

Reference: ChEMBL document CHEMBL1201862, “PubChem BioAssay data set” (2004)
